In US12653911B2, “Stimuli-responsive nanoparticles for biomedical applications” (The Brigham and Women's Hospital, Inc., priority 2016, dated 2026):

Assay: Acid-base titration of the polymers (pKa)
Assay type: physicochemical
Protocol: (§1) Meo-PEG-b-P(DPA-co-GMA-TEPA-C14) was dispersed in deionized water, and a concentrated HCl aqueous solution was added until complete dissolution of the copolymer (1 mg/mL). Subsequently, 1 M NaOH aqueous solution was added in 1-5 μL increments. After each addition, the solution was constantly stirred for 3 min, and the solution pH was measured using a pH meter.
as §1, with “Meo-PEG-b-P(DPA-co-GMA-Rn)” for “Meo-PEG-b-P(DPA-co-GMA-TEPA-C14)”, “until” for “until complete dissolution of”, “copolymer was completely dissolved” for “copolymer”
Subsequently, 1 M NaOH aqueous solution was added in 1-5 μL increments. After each addition, the solution was constantly stirred for 3 min, and the solution pH was measured using a pH meter.

| Substance | pKa of polymer | pKa |
| --- | --- | --- |
| Meo-PEG-b-P(DPA-co-GMA-R10) |  | 6.31 |
| Meo-PEG-b-P(DPA-co-GMA) [PDPA60-GMA5] |  | 6.29 |
| Meo-PEG-b-P(DPA-co-GMA) [PDPA70-GMA5] |  | 6.26 |
| Meo-PEG-b-P(DPA-co-GMA) [PDPA40-GMA5] |  | 6.34 |
| Meo-PEG-b-P(DPA-co-GMA) [PDPA50-GMA5] |  | 6.31 |
| Meo-PEG113-b-P(DPA80-co-GMA5) [PDPA80-GMA5] |  | 6.24 |
| Meo-PEG-b-P(DPA-co-GMA) [PDPA100-GMA5] |  | 6.21 |

Second part, the substance after the results:

| pKa of polymer | pKa | Substance |
| --- | --- | --- |
| 6.31 |  | Meo-PEG-b-P(DPA-co-GMA-TEPA-C14) [PDPA50] |
| 6.26 |  | Meo-PEG-b-P(DPA-co-GMA-TEPA-C14) [PDPA70] |
| 6.34 |  | Meo-PEG-b-P(DPA-co-GMA-TEPA-C14) [PDPA40] |
| 6.29 |  | Meo-PEG-b-P(DPA-co-GMA-TEPA-C14) [PDPA60] |
